In patent publication US12215129B2, “Antibacterial cyclopeptides targeting acinetobacter and other gram-negative pathogens” (priority 2020, dated 2025):
≈ marks a conversion by molar mass, not a printed value. Where “and” joins values, the source holds several entries; their conditions need not be identical. Equal entries are not always repeated. Marks after values point to notes of the source that are not given here. Starred links: 1 amine or outer side, 2 acyl side, 3 side chain; linkers in the order of their positions; H or OH if unused. Positions of bridges follow the written chain, without caps; N, C: chain ends. Non-standard residues stand in square brackets, D forms with d. Residues, ends and D or L forms follow the SMILES beside them. *: point of attachment. dAsp(3R-OH) = N[C@@H](C(=O)O)[C@@H](O)C(=O)O; Palmitoleoyl = CCCCCC/C=C\CCCCCCCC(=O)*; X1 = NC[C@H](O)[C@@H](N[*:1])C(=O)[*:2]; X2 = CCC(C)(O)[C@H](N[*:1])C(=O)[*:2]; d(aIle) = CC[C@H](C)[C@@H](N)C(=O)O; Myristoyl = CCCCCCCCCCCCCC(=O)*; dOrn = NCCC[C@@H](N)C(=O)O; hSer = N[C@@H](CCO)C(=O)O

Experiments:
Escherichia coli = assay type: cell-based
[1] = tested on: Klebsiella pneumoniae (ATCC BAA-1705); assay type: cell-based
A. baylyi = assay type: cell-based, Acinetobacter baylyi; details: for sensitivity of Δ1ptE A. baylyi strain: at 8 μg/mL; for MIC against A. baylyi compared with A. baumannii: nonpathogenic relative A. baylyi; for nature of growth inhibition: plating of inhibited wells from A. baylyi broth cultures
A. baumannii ATCC 17978 = experiment: Thigh infection neutropenic mouse model, efficacy (CFU/thigh); assay type: in vivo, Acinetobacter baumannii; details: for Decrease (%) / Δ / CFU/thigh Time post inoculation 2, 26 h / Log (CFU/thigh) Time post inoculation 2, 26 h / CFU/thigh Time post inoculation 2, 26 h, Mean / Log (CFU/thigh) Time post inoculation 2, 26 h, Mean / Dilution (CFU/plate) 0 / Dilution (CFU/plate) 10^1 / Dilution (CFU/plate) 10^2 / Dilution (CFU/plate) 10^3 / Dilution (CFU/plate) 10^4 / Dilution (CFU/plate) 10^5 / Dilution (CFU/plate) 10^6: BID, q12h; for Decrease (%) / Δ / CFU/thigh Time post inoculation 2, 26 h / Log (CFU/thigh) Time post inoculation 2, 26 h / CFU/thigh Time post inoculation 2, 26 h, Mean / Log (CFU/thigh) Time post inoculation 2, 26 h, Mean: 26 h; for Decrease (%): decrease in counts compared to the vehicle group; for Δ: difference in bacterial counts relative to the baseline group (2 h initial counts); for CFU/thigh Time post inoculation 2, 26 h / Log (CFU/thigh) Time post inoculation 2, 26 h: individual animals; for CFU/thigh Time post inoculation 2, 26 h, Mean / Log (CFU/thigh) Time post inoculation 2, 26 h, Mean: mean of 5 animals; for Dilution (CFU/plate) 0 / Dilution (CFU/plate) 10^1 / Dilution (CFU/plate) 10^2 / Dilution (CFU/plate) 10^3 / Dilution (CFU/plate) 10^4 / Dilution (CFU/plate) 10^5 / Dilution (CFU/plate) 10^6: raw data; for Dilution (CFU/plate) 0: dilution 0, individual animals; for Dilution (CFU/plate) 10^1: dilution 10^1, individual animals; for Dilution (CFU/plate) 10^2: dilution 10^2, individual animals; for Dilution (CFU/plate) 10^3: dilution 10^3, individual animals; for Dilution (CFU/plate) 10^4: dilution 10^4, individual animals; for Dilution (CFU/plate) 10^5: dilution 10^5, individual animals; for Dilution (CFU/plate) 10^6: dilution 10^6, individual animals
[2] = tested on: Acinetobacter baumannii (ATCC 19606); details: for MIC: ATCC 19606
[3] = tested on: Enterococcus faecalis (ATCC 29212)

## CCCCCCCCCCCCCC(=O)N[C@H](CCCN)C(=O)N[C@@H](CO)C(=O)N[C@H](C(=O)N[C@@H](C(=O)N[C@@H](C(=O)N[C@@H]1C(=O)NCC(=O)N[C@@H](C(C)(O)CC)C(=O)N[C@H]([C@@H](C)CC)C(=O)N[C@@H](CCO)C(=O)N[C@@H](C)C(=O)N[C@H]([C@@H](C)CC)C(=O)N[C@@H](CCC(=O)O)C(=O)O[C@@H]1C)[C@@H](O)CN)[C@@H](O)C(=O)O)C(C)C (stereo partly drawn) [Compound 1, Turnercyclamycin A] (Myristoyl-[dOrn]SV[dAsp(3R-OH)][X1]TG[X2][d(aIle)][hSer]A[d(aIle)]E; ester 6-C)
Escherichia coli
  MIC90: 1 µg/mL (≈ 0.636 µM)
[1]
  MIC90: 2 µg/mL (≈ 1.27 µM)
A. baylyi
  sensitivity of Δ1ptE A. baylyi strain: still sensitive
  MIC against A. baylyi compared with A. baumannii: same MIC
  nature of growth inhibition: bactericidal, not bacteriostatic
A. baumannii ATCC 17978; 6.25 mg/kg IV
  Decrease (%): 27%
  Δ: 2.27
  CFU/thigh Time post inoculation 2, 26 h: 4.59 × 10^7 CFU/thigh and 3.63 × 10^7 CFU/thigh and 4.62 × 10^7 CFU/thigh and 6.93 × 10^7 CFU/thigh and 7.71 × 10^7 CFU/thigh
  Log (CFU/thigh) Time post inoculation 2, 26 h: 7.66 Log (CFU/thigh) (2×) and 7.56 Log (CFU/thigh) and 7.84 Log (CFU/thigh) and 7.89 Log (CFU/thigh)
  CFU/thigh Time post inoculation 2, 26 h, Mean: 5.50 × 10^7 CFU/thigh
  Log (CFU/thigh) Time post inoculation 2, 26 h, Mean: 7.72 Log (CFU/thigh)
  Dilution (CFU/plate) 0: >300 CFU/plate
  Dilution (CFU/plate) 10^1: >300 CFU/plate
  Dilution (CFU/plate) 10^2: >300 CFU/plate
  Dilution (CFU/plate) 10^3: >300 CFU/plate
  Dilution (CFU/plate) 10^4: 153 CFU/plate and 121 CFU/plate and 154 CFU/plate and 231 CFU/plate and 257 CFU/plate
  Dilution (CFU/plate) 10^5: 21 CFU/plate and 9 CFU/plate and 16 CFU/plate and 24 CFU/plate and 26 CFU/plate
  Dilution (CFU/plate) 10^6: 3 CFU/plate (2×) and 1 CFU/plate and 0 CFU/plate and 2 CFU/plate
A. baumannii ATCC 17978; 12.5 mg/kg IV twice daily, p<0.05, CFU at 26 hours
  decrease in bacterial CFU/thigh: 98%
A. baumannii ATCC 17978; 12.5 mg/kg IV
  Decrease (%): 98%
  Δ: 0.10
  CFU/thigh Time post inoculation 2, 26 h: 5.67 × 10^5 CFU/thigh and 7.02 × 10^6 CFU/thigh and 7.89 × 10^5 CFU/thigh and 1.32 × 10^5 CFU/thigh and 1.35 × 10^4 CFU/thigh
  Log (CFU/thigh) Time post inoculation 2, 26 h: 5.75 Log (CFU/thigh) and 6.85 Log (CFU/thigh) and 5.90 Log (CFU/thigh) and 5.12 Log (CFU/thigh) and 4.13 Log (CFU/thigh)
  CFU/thigh Time post inoculation 2, 26 h, Mean: 1.70 × 10^6 CFU/thigh
  Log (CFU/thigh) Time post inoculation 2, 26 h, Mean: 5.55* Log (CFU/thigh)
  Dilution (CFU/plate) 0: >300 CFU/plate
  Dilution (CFU/plate) 10^1: >300 CFU/plate (4×) and 45 CFU/plate
  Dilution (CFU/plate) 10^2: 189 CFU/plate and >300 CFU/plate and 263 CFU/plate and 44 CFU/plate and 4 CFU/plate
  Dilution (CFU/plate) 10^3: 12 CFU/plate and 234 CFU/plate and 24 CFU/plate and 2 CFU/plate and 0 CFU/plate
  Dilution (CFU/plate) 10^4: 0 CFU/plate (2×) and 1 CFU/plate and 28 CFU/plate and 2 CFU/plate
  Dilution (CFU/plate) 10^5: 0 CFU/plate (4×) and 1 CFU/plate
  Dilution (CFU/plate) 10^6: 0 CFU/plate
A. baumannii ATCC 17978; 25 mg/kg IV twice daily, CFU at 26 hours
  clearing of bacterial CFU/thigh: 99.99%
A. baumannii ATCC 17978; 25 mg/kg IV
  Decrease (%): 100%
  Δ: −1.65^#
  CFU/thigh Time post inoculation 2, 26 h: 5.91 × 10^3 CFU/thigh and 7.68 × 10^3 CFU/thigh and 8.76 × 10^3 CFU/thigh and 1.38 × 10^4 CFU/thigh and 1.89 × 10^3 CFU/thigh
  Log (CFU/thigh) Time post inoculation 2, 26 h: 3.77 Log (CFU/thigh) and 3.89 Log (CFU/thigh) and 3.94 Log (CFU/thigh) and 4.14 Log (CFU/thigh) and 3.28 Log (CFU/thigh)
  CFU/thigh Time post inoculation 2, 26 h, Mean: 7.61 × 10^3 CFU/thigh
  Log (CFU/thigh) Time post inoculation 2, 26 h, Mean: 3.80* Log (CFU/thigh)
  Dilution (CFU/plate) 0: 197 CFU/plate and 256 CFU/plate and 292 CFU/plate and >300 CFU/plate and 63 CFU/plate
  Dilution (CFU/plate) 10^1: 26 CFU/plate and 32 CFU/plate and 29 CFU/plate and 46 CFU/plate and 8 CFU/plate
  Dilution (CFU/plate) 10^2: 3 CFU/plate (2×) and 1 CFU/plate (2×) and 4 CFU/plate
  Dilution (CFU/plate) 10^3: 0 CFU/plate
  Dilution (CFU/plate) 10^4: 0 CFU/plate
  Dilution (CFU/plate) 10^5: 0 CFU/plate
  Dilution (CFU/plate) 10^6: 0 CFU/plate
[2]
  MIC90: 8 µg/mL (≈ 5.09 µM)
  MIC: 8 µg/mL (≈ 5.09 µM)
[3]
  MIC90: >64 µg/mL
Staphylococcus aureus
  MIC90: >64 µg/mL
  decrease of Staphylococcus aureus growth: 50%

## CCCCCC/C=C\CCCCCCCC(=O)N[C@H](CCCN)C(=O)N[C@@H](CO)C(=O)N[C@H](C(=O)N[C@@H](C(=O)N[C@@H](C(=O)N[C@@H]1C(=O)NCC(=O)N[C@@H](C(C)(O)CC)C(=O)N[C@H]([C@@H](C)CC)C(=O)N[C@@H](CCO)C(=O)N[C@@H](C)C(=O)N[C@H]([C@@H](C)CC)C(=O)N[C@@H](CCC(=O)O)C(=O)O[C@@H]1C)[C@@H](O)CN)[C@@H](O)C(=O)O)C(C)C (stereo partly drawn) [Compound 2, Turnercyclamycin B] (Palmitoleoyl-[dOrn]SV[dAsp(3R-OH)][X1]TG[X2][d(aIle)][hSer]A[d(aIle)]E; ester 6-C)
Escherichia coli
  MIC90: 1 µg/mL (≈ 0.625 µM)
[1]
  MIC90: 2 µg/mL (≈ 1.25 µM)
A. baylyi
  sensitivity of Δ1ptE A. baylyi strain: still sensitive
  MIC against A. baylyi compared with A. baumannii: same MIC
  nature of growth inhibition: bactericidal, not bacteriostatic
[2]
  MIC90: 8 µg/mL (≈ 5 µM)
  MIC: 8 µg/mL (≈ 5 µM)
[3]
  MIC90: >64 µg/mL
Staphylococcus aureus
  MIC90: >64 µg/mL
  decrease of Staphylococcus aureus growth: 50%
HEK-293 cells
  IC50 against HEK-293: failed to calculate an IC50 value
Mouse red blood cell
  hemolytic activity, no activity up to: > 64 µg/mL
